Laboratory results published in publication doi:10.1101/2022.02.24.481826v2 (biorxiv, 2022).

Biological target: T1, AMPK4 (Arabidopsis thaliana, UniProt O82514)
T1 sequence (O82514 2-246): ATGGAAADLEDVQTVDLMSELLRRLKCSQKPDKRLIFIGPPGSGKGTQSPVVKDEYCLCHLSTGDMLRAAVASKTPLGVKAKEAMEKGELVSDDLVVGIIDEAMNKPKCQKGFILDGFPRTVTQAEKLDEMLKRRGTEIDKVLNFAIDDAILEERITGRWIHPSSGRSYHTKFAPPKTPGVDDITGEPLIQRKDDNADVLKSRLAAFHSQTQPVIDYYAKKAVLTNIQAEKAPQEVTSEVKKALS
Experiment: coupled pyruvate kinase / lactate dehydrogenase assay, […] nm
Type: biochemical
Conditions: 1 mM AMP, 1 mM ATP

coupled pyruvate kinase / lactate dehydrogenase assay, 340 nm: Analogous data for AMPK4
SMILES: Nc1ncnc2c1ncn2[C@@H]1O[C@H](COP(=O)(O)O)[C@@H](O)[C@H]1O [AMP]
